According to US20230374460A1, “Methods for Cardiac Differentiation of Human Induced Pluripotent Stem Cells” (The Trustees of Columbia University in the City of New York, priority 2015, published 2023):

Experiments:
LQTS cardiomyocytes = experiment: Dual optical recording of action potentials (ArcLight) and calcium handling (R-GECO1) in LQTS (Timothy syndrome) iPSC-derived cardiomyocytes; type: cell-based, human
Procedure: Plasmids of R-GECO1 (Addgene #32462) (Zhao et al., 2011) and ArcLight (Addgene #36857) (Jin et al., 2012) were used as template to amplify the cDNA using Phusion polymerase (Thermo Scientific) with primer sets that allowed us to add restriction enzyme site EcoRI and Kozak sequence before the start codon (without nuclear localization signal for R-GECO) and another site XhoI after the stop codon. These PCR products were subcloned into lentiviral vector that was prepared from LV-SD-Cre (Addgene, #12105, no longer available currently) digested with EcoRI and XhoI. XL-10 Gold competent cells (Agilent) transformed with these LV-SD vectors were inoculated at 24-30° C. The purified LV-SD vectors were transfected together with pCMV-dR8.2 dvpr and pCMV-VSV-G (Addgene #8455 & 8454) as follow: HEK293T cells that were plated at 5×10^5 cell/ml (2 ml per well) one day before were transfected with total 3.4 μg per well (ratio, LV-SD:dR8.2:VSV-G=8:8:1) and LF-2K (8.0 μl per well) in a 6-well plate. The next day the media was changed. Two days after transfection, culture media was harvested (again fresh media was added to transfected HEK 293T cells) and filtered using 0.45 μm PES filter (VWR) and then directly added to wells containing monolayer cardiomyocytes (at 2-3 weeks after inducing cardiac differentiation). No polybrene was used for viral infection. Seventy-two hours after transfection, the culture media was again collected and used as secondary infection. The next day media was changed to DF5 media for infected cardiomyocytes. In case of serum-free condition, Lenti-X concentrator (TaKaRa/Clontech) was used for media change, following the manufacture's instruction. Three to five days after the secondary infection, monolayer cardiomyocytes were transferred to 35 mm glass bottom culture dishes (7 mm diameter, No. 1.5 glass) coated with Geltrex. Nikon Ti-U epi-fluorescent microscope connected to EMCDD Digital Monochrome camera (Evolve, EVO-512-M-FW-16-AC, 512×512, Photometrics) was used with LED light source (Lumencore Spectra X 6 line LED system, with Chroma excitation mounted filters, ET395/25x, ET470/30, ET550/15x, ET640/30x;) with dichroic mirror and emission filter (dichroic mirror, D/F/Cy3/Cy5pc; emission, ET430/36 513/44 595/41 719/105) operated by MetaFlour (Molecular Devices, acquisition: exposure time, 20 ms; gain 3 (6×); transfer speed, 5 MHz, Image size: 512×512; binning, 1.0). Temperature of the bath solution was maintained at approximately 35° C. using a digital temperature controller (TC-344B, Warner Instruments) for the duration of the experiment. Nikon objective lens 40× (CF1 S Fluor, NA 0.90) for cell clusters and 60× (CFI Plan Apo Lambda H, NA 1.40) for single cells were used to capture two fluorescent signals as R-GECO1 (illumination control. 10 in 0-255, cy3) and ArcLight (150 in 0-255, FITC, 4 or 8 frames per sec). Isoproterenol (10 μM, Sigma Aldrich) and R-roscovitine (0.5 and 5 μM) were used for fluorescent imaging. The effect of serum concentration on the imaging using ArcLight and R-GECO1 in control and patient cells was not observed at approximately 35° C. […] Daily imaging in cardiomyocytes infected at day 15 was conducted for 18 days (day 23-40). Additional recordings were performed at day 90 to examine low long ArcLight and R-GECO1 signals are available.
A dual optical imaging system using two genetically encoded indicators, ArcLight for voltage and R-GECO1 for calcium transients, has been developed to efficiently phenotype the patient specific iPSC-derived cardiomyocytes derived from the serum containing protocol (Song, et al. Stem Cells Transl Med. 4(5):468-75 (2015)). […] Those phenotypes of Timothy syndrome patient iPSCs derived cardiomyocytes can be rescued by 5 μM Roscovitine treatment (FIGS. 2B-2C and FIG. 5).

[1] = test system: control (Ctrl) cardiomyocytes; experiment: Dual optical recording of action potentials (ArcLight) and calcium handling (R-GECO1) in control iPSC-derived cardiomyocytes; type: cell-based, human; details: 5 μM, 10 min
Procedure: Plasmids of R-GECO1 (Addgene #32462) (Zhao et al., 2011) and ArcLight (Addgene #36857) (Jin et al., 2012) were used as template to amplify the cDNA using Phusion polymerase (Thermo Scientific) with primer sets that allowed us to add restriction enzyme site EcoRI and Kozak sequence before the start codon (without nuclear localization signal for R-GECO) and another site XhoI after the stop codon. These PCR products were subcloned into lentiviral vector that was prepared from LV-SD-Cre (Addgene, #12105, no longer available currently) digested with EcoRI and XhoI. XL-10 Gold competent cells (Agilent) transformed with these LV-SD vectors were inoculated at 24-30° C. The purified LV-SD vectors were transfected together with pCMV-dR8.2 dvpr and pCMV-VSV-G (Addgene #8455 & 8454) as follow: HEK293T cells that were plated at 5×10^5 cell/ml (2 ml per well) one day before were transfected with total 3.4 μg per well (ratio, LV-SD:dR8.2:VSV-G=8:8:1) and LF-2K (8.0 μl per well) in a 6-well plate. The next day the media was changed. Two days after transfection, culture media was harvested (again fresh media was added to transfected HEK 293T cells) and filtered using 0.45 μm PES filter (VWR) and then directly added to wells containing monolayer cardiomyocytes (at 2-3 weeks after inducing cardiac differentiation). No polybrene was used for viral infection. […]

human iPSC lines = experiment: Monolayer cardiac differentiation of iPSCs into beating cardiomyocytes (serum-containing protocol, optimisation of GSK3 inhibitor dose and oxygen level); type: cell-based; details: single use, 20% O2
Description: CHIR99021 (GSK3 inhibitor, #1386, Lot #6 & #7, Axon MedChem) and BIO (GSK3 inhibitor IX, #361550, Lot #D00148116, Calbiochem) (Minami et al., Cell reports 2, 1448-1460(2012)), IWP-3 (Wnt inhibitor, #SML0533, Lot #102m4613V, Sigma-Aldrich) resolved in Dimethyl Sulfoxide (DMSO, #276855, Sigma-Aldrich) were used for monolayer differentiation of iPSCs plated on Geltrex in 6-well plate or 10 cm dish. To prepare differentiating culture media, only one freeze and thaw cycle was confirmed for all aliquots of small compounds CHIR99021 and BIO and recombinant human growth factors. Twice freeze and thaw cycle was confirmed for IWP-3 aliquots. For the differentiation protocol with serum-containing media, DF20/5 media was used for cardiac differentiation and culture: DMEM/F-12 (with GlutaMax I) containing 20% or 5% Hyclone FBS, 1% non-essential amino acid, P.S. and 0.1 mM bME. Additional D-glucose was added to only DF20 as high glucose media (final 4.5 g/l) to enhance mesoderm differentiation from Day 1 to Day 4. For BIO and CHIR treatment, media was changed everyday. For IWP-3 treatment, media was changed every other day. DF5 media was used for the maintenance of cardiomyocytes after differentiation (Day 11˜) and media was changed every other day. Changed media using DF20 with small compounds required ˜3 ml per well in 6-well and ˜15 ml per 10 cm dish every other day since adding 2-2.5 ml of fresh media to a well of 6-well plates was not sufficient for high confluence of cells during differentiation into cardiomyocytes, resulting in lower efficiency of cardiac differentiation. […] For the differentiation protocol without serum containing media, Iscove's Modified Dulbecco Media (IMDM, Sigma-Aldrich) with B27 supplement (-minus insulin version, Life Technologies) was used for mesoderm differentiation (Day 1 to Day 3) and IMDM media with B27 (regular version, Life Technologies) was used for further differentiation and maintenance (Day 4˜). […] For the comparison between different serum free monolayer cardiac differentiation protocols (FIG. 3), RPMI1640 media (Sigma-Aldrich) and Activin A and BMP4 (R & D Systems), B27 supplement (both regular & minus insulin version, Life Technologies), human albumin (Sigma) and L-ascorbic acid 2-phosphate (Sigma-Aldrich) were used to make the corresponding differentiation media. In case of using DMEM/F-12 media for serum-free protocol, all cells died during early stage of cardiac differentiation (data not shown). All images and movies were taken in the tissue culture room using TS100F-LED microscope operated by Nikon NIS-Elements with objectives (4×, CFI Plan Fluor DL, NA 0.13; 10×, CFI Achromat ADL, NA0.25; 20×, CFI Achromat LWD ADL, NA 0.4, Nikon). Antibodies to sarcomeric alpha-actinin (clone #EA-53, Sigma-Aldrich) were used for immunocytochemistry of human cardiomyocytes (3-4 weeks later after cardiac differentiation). The cell size was analyzed blindly by E. Uche-Anya using Fiji software (FIG. 6). FACS analyses were performed in Columbia Center for Translational Immunology (CCTI) using a BD FACS Calibur using control and patient cardiomyocytes at day 19. Standard protocol for FACS was used first with 0.5% saponin (Sigma-Aldrich) for permeabilization at blocking step and next with sarcomeric alpha-actinin antibody (Sigma-Aldrich, clone #EA-53, 1/200 dilution) or cardiac troponin T (clone #13-11, Thermo Scientific, 1/500 dilution) and goat anti-mouse Alexa Fluor 488 secondary antibody (Life Technologies, 1/500) in FACS buffer (0.1% saponin, 2% FBS and 2 mM EDTA in Hanks buffer in HEPES, HBSS). The FACS data analyses were blindly performed by J. Feng. The identical cell samples were also used before fixation, for RNA/cDNA preparation and gene expression profiling using qPCR. Dimethyl Sulfoxide (DMSO) quality is critical to get reproducible results using small compounds, especially CHIR99021 (CHIR, #1386, lot #6 & #7, Axon MedChem). DMSO should be kept from ambient air. […]

[2] = monolayer of LQTS cardiomyocytes, serum-containing protocol (FIG. 5D)

CC[C@H](CO)Nc1nc(NCc2ccccc2)c2ncn(C(C)C)c2n1 [Roscovitine]
phenotypes in action potentials, channel inactivation and calcium handling in Timothy syndrome cardiomyocytes (LQTS cardiomyocytes): rescued the phenotypes
APD90 (LQTS cardiomyocytes; 5 μM, 10 min, LQTS cardiomyocytes, serum-free condition (FIG. 5H)): positive effects
number of spontaneous calcium transients (LQTS cardiomyocytes; 5 μM, 10 min, LQTS cardiomyocytes, serum-free condition (FIG. 5I)): positive effects
phenotypes of Timothy syndrome cardiomyocytes (LQTS cardiomyocytes; 5 μM, cardiomyocytes derived using the serum-free protocol): rescued the phenotypes
phenotypes (prolonged action potentials and abnormal calcium handling) of Timothy syndrome cardiomyocytes (LQTS cardiomyocytes; 5 μM, cardiomyocytes from the serum-containing protocol): rescued
irregular calcium handling and electrical activities (LQTS cardiomyocytes; 5 μM, single LQTS CMs, before, during and after treatment (FIG. 2B)): prevented
action potential (APD90, 90% from peak) (LQTS cardiomyocytes; monolayer of LQTS cardiomyocytes, serum-containing protocol (FIG. 5C)): shortened
beating rate (LQTS cardiomyocytes; [2]): increased
number of spontaneous calcium transients (LQTS cardiomyocytes; [2]): increased
prolonged action potentials (LQTS cardiomyocytes; single LQTS cardiomyocytes, n=12, 4 lines from two patients (FIG. 2C)): rescued
APD90 ([1]; serum-free protocol (FIG. 5F)): no effect
number of spontaneous calcium transients ([1]; serum-free protocol (FIG. 5G)): no effect

O=C1Nc2cc(Br)ccc2/C1=C1/Nc2ccccc2/C1=N\O [BIO, (2′ Z,3′ £)-6-Bromoindirubin-3′-oxime]
beating cells (human iPSC lines; BIO 1 μM): provided beating cardiomyocytes and Yes
beating cells (human iPSC lines; BIO 2 μM): Yes
beating cells, where in the well (human iPSC lines; BIO 2 μM): only around the edge of well
beating cells (human iPSC lines; BIO 4 μM): No
beating cells (human iPSC lines; BIO 8 μM): No

Cc1c[nH]c(-c2cnc(NCCNc3ccc(C#N)cn3)nc2-c2ccc(Cl)cc2Cl)n1 [CHIR]
beating cells (human iPSC lines; CHIR 5 μM): provided beating cardiomyocytes and Yes
beating cells, where in the well (human iPSC lines; CHIR 5 μM): only around the center of well
beating cells (human iPSC lines; CHIR 10 μM): No
beating cells (human iPSC lines; CHIR 15 μM): No
beating cells (human iPSC lines; CHIR 20 μM): No
